Laboratory results taken from patent publication US20200222418A1, “USE OF PHENOTHIAZINE DERIVATIVE IN THE TREATMENT OF INFECTION CAUSED BY BACTERIA CARRYING TYPE IV PILI” (priority 2017, published 2020).

Assays:
[1] = tested on: N. meningitidis 2C4.3 aggregates; format: cell-based, Neisseria meningitidis; conditions: for effect on dispersion of meningococcal aggregates: 0.5 to 80 μM, 30 min
Experimental: N. meningitidis 2C4.3 was grown in liquid culture at 10^7 CFU/ml for 2 h to form bacterial aggregates and were treated with increasing concentrations of Trifluoperazine (10 to 40 μM), Gentamicin (150 μg/ml) or cefotaxim (20 μg/ml) for 20 minutes and bacterial aggregates were immediately visualized using a phase-contrast microscope. […] (B) Quantification of the bacterial aggregation was performed using Image J software.
N. meningitidis 2C4.3 wild type strain and the isogenic derivative mutant PilT ([…]PiIT) were grown in liquid culture at 10^7 CFU/ml for 2 h to form bacterial aggregates and then treated with 50 μM Trifluoperazine. Time lapse phase-contrast video microscopy was performed to visualize the effect on bacterial aggregates over time. Images were taken at the indicated time points of the video.
N. meningitidis 2C4.3 was grown in liquid culture at 10^7 CFU/ml for 2 h to form bacterial aggregates and were treated with 30 μM Trifluoperazine for 30 minutes to induce bacterial dispersion or PBS as a control. The medium was replaced to remove the Trifluoperazine and the reformation of bacterial aggregates were visualized overtime using a phase-contrast microscope.
Bacteria were grown in suspension for 2 h then Phenothiazine derivatives were added at the indicated concentrations.
N. meninigitidis 2C4.3 strain was grown in suspension in wells of a 24 well plate, containing 1 ml of DMEM medium supplemented with 10% heat-inactivated fetal calf serum. After 2 h of growth, Trifluoperazine (or control vehicle) was added at various concentrations ranging from 10 to 40 μM for 20 min and the bacterial aggregates were visualized over time using a phase-contrast microscope.
N. meninigitidis 2C4.3 strain was grown in suspension in wells of a 24 well plate, containing 1 ml of DMEM medium supplemented with 10% heat-inactivated fetal calf serum. After 2 h of growth, various concentrations (0.5 to 80 μM) of phenothiazine-derivative compounds or control vehicle (PBS or DMSO) were added to the wells for 30 min and the bacterial aggregates were visualized using a phase-contrast microscope. Were tested phenothiazine-derivative compounds of: • the Piperazine group: Trifluoperazine (Sigma #T8516), Fluphenazine (Sigma #F4765), Prochlorperazine (Sigma #P9178) Perphenazine (Sigma #P6402); • the Piperidine group: Thioridazine (Sigma #T9025) and Mesoridazin (Sigma #M4068); • the Aliphatic group: Chlorpromazine (Sigma #C8138), Promazine (Sigma #P6656), Triflupromazine (Sigma #1686003) and levomepromazine (Sigma #L0500000).

[2] = tested on: Nm2C4.3 microcolonies on HBMEC, human bone marrow endothelial cell line; test: Dispersion of meningococcal microcolonies on HBMEC (vascular colonisation index); format: cell-based, Neisseria meningitidis; conditions: 30 min, Trifluoperazine 10-40 μM, Gentamicin 150 μg/ml, Cefotaxim 20 μg/ml
Experimental: Human […] microvascular endothelial cells (HBMEC) were infected with Nm2C4.3 for 1 h 30, treated with Trifluoperazine (10-40 μM) for 30 minutes, before fixation and immunofluorescence analysis using anti-Nm2C4.3 antibody and Alexa Fluor 633 Phalloidin. (A) Representative fluorescence microscopy showing bacterial colony (white dots) formed at the surface of the endothelial cells. (B) Quantification of the bacterial colonization was performed using Image J software.
HBMEC, a human endothelial cell line isolated from […] capillaries (Schweitzer et al., 1997) were grown in Dulbecco's Modified Eagle Medium (DMEM) 4.5 g/L-Glutamax (ThermoFischer) 10% FBS. Cells were grown on Thermanox coverslips coated with gelatin 2% (BD Difco #214340) for 2 days to reach confluency. Cells were then infected with a suspension of Nm2C4.3 (˜10^7 CFU/ml) in DMEM/FBS during 30 minutes to allow bacterial adhesion. Cells were then washed three times with medium to remove non-adherent bacteria and infection was pursued for 1 h 30: adherent bacteria grew at the endothelial cell surface and formed micro-colonies. Trifluoperazine was then added to obtain final concentrations of 10, 20, 30 and 40 μM. After incubation for 30 minutes, cells were washed and fixed in 4% Paraformaldehyde for 10 min, washed three times with PBS, and permeabilized with 0.1% Triton X-100 in PBS for 10 min. Cells were blocked for 30 min with 3% BSA in PBS and were incubated for 2 h with the primary antibodies (Rabbit polyclonal anti-Nm2C4.3 strain, kindly provided by Dr X. Nassif, INEM, Paris). After three washes with PBS, cells were incubated for 1 h with […] anti-rabbit IgG (Jackson ImmunoResearch Laboratories), together with Alexa Fluor 633 Phalloidin (Thermofischer) and DAPI ([…], Sigma Aldrich) to stain Actin and nuclei, respectively. Labelled preparations were mounted in Glycergel media (DAKO) and image acquisitions were performed with a DM16000 microscope (Leica, X40). Quantification was done with ImageJ software (NIH). […]

[3] = tested on: meningococcal colonization of the human dermal vasculature; test: In vivo meningococcal infection of mice engrafted with human skin

Row | SMILES | dispersion of bacterial aggregates formed in suspension ([1]; aggregates pre-formed 2 h, 20 min, Trifluoperazine 10-40 μM, Gentamicin 150 μg/ml, Cefotaxim 20 μg/ml) | dispersion of compact meningococcal microcolonies established at the endothelial cell surface [2] | increase of inflammatory response [3] [fold] | effect on dispersion of meningococcal aggregates [1]
1 | CO/N=C(\C(=O)N[C@@H]1C(=O)N2C(C(=O)O)=C(COC(C)=O)CS[C@H]12)c1csc(N)n1 [Cefotaxim] | did not significantly induce the dispersion | poorly induced the dispersion | 2 | 
2 | CN(C)CCCN1c2ccccc2Sc2ccc(Cl)cc21 [Chlorpromazine] |  |  |  | no effects
3 | COc1ccc2c(c1)N(C[C@H](C)CN(C)C)c1ccccc1S2 [Levomepromazine] |  |  |  | no effects
4 | CN(C)CCCN1c2ccccc2Sc2ccccc21 [Promazine] |  |  |  | inhibited bacterial aggregation with better efficacy than Trifluoperazine
5 | CN(C)CCCN1c2ccccc2Sc2ccc(C(F)(F)F)cc21 [Triflupromazine] |  |  |  | no effects
